In brackets after ≈: the same amount, converted by molar mass.
How the values were obtained:
[1] = test system: P. aeruginosa PAM1626 (lacks all the three efflux pumps); experiment: microbe, parasite or virus in culture; format: cell-based, Pseudomonas aeruginosa; conditions: for Levofloxacin MIC in the presence of inhibitor: PAM1626
[2] = test system: P. aeruginosa PAM2466 (MexAB-OprM, MexXY-OprM); experiment: microbe, parasite or virus in culture; format: cell-based, Pseudomonas aeruginosa; conditions: PAM2466
Experimental: (§1) A set of strains that simultaneously over-expressed pairs or triplicates of pumps, e.g. PAM2302 and PAM2303 was tested. Simultaneous over-expression of efflux pumps has been recently detected in clinical strains.

[3] = test system: P. aeruginosa PAM2282 (MexAB-OprM, MexEF-OprN); experiment: microbe, parasite or virus in culture; format: cell-based, Pseudomonas aeruginosa; conditions: PAM2282
Experimental: as §1

[4] = test system: P. aeruginosa PAM2281 (MexAB-OprM, MexEF-OprN); experiment: microbe, parasite or virus in culture; format: cell-based, Pseudomonas aeruginosa; conditions: PAM2281
Experimental: as §1

[5] = test system: P. aeruginosa PAM1738 (nfxB, overexpressing MexCD-OprJ); experiment: microbe, parasite or virus in culture; format: cell-based, Pseudomonas aeruginosa
Experimental: (§2) Stock solutions were further diluted, according to the needs of a particular assay, in Mueller Hinton Broth (MHB). Stock solution was stored at −80° C.
(§3) The checkerboard assay was performed in microtiter plates. […] The result of these manipulations is that each well of the microtiter plate contains a unique combination of concentrations of the two agents. The assay was performed in MHB with a final bacterial inoculum of 5×10^5 CFU/ml (from an early-log phase culture). Microtiter plates were incubated during 20 h at 35° C. and were read using a microtiterplate reader (Molecular Devices) at 650 nm as well as visual observation using a microtiter plate reading mirror.
(§4) The test organisms used was PAM1020, which is a wild type strain of P. aeruginosa expressing the basal level of MexAB-OprM, as well as PAM1723, PAM1738, and PAM1753, overexpressing the MexAB-OprM, MexCD-OprJ, and MexEF-OprN pump, respectively.

[6] = test system: P. aeruginosa PAM1020 (wt, basal level of MexAB-OprM); experiment: Levofloxacin potentiation checkerboard assay (broth microdilution); format: cell-based, Pseudomonas aeruginosa
Experimental: as §2, §3, §4

[7] = test system: P. aeruginosa PAM1753 (nfxC, overexpressing MexEF-OprN); experiment: as above; format: cell-based, Pseudomonas aeruginosa; conditions: for Levofloxacin MIC in the presence of inhibitor: PAM1753
Experimental: as §2, §3, §4

[8] = test system: P. aeruginosa PAM1569 (MexCD-OprJ; gyrA (Thr83Ile)); experiment: microbe, parasite or virus in culture; format: cell-based, Pseudomonas aeruginosa; conditions: PAM1569
Source text: (§5) In addition to increased efflux, resistance to fluoroquinolones may be due to target mutations (gyrase and topoisimerase IV) or due to combination of these two resistance mechanisms in a single bacterial cell.

[9] = test system: P. aeruginosa PAM1482 (MexCD-OprJ; gyrA (Asp87Tyr)); experiment: microbe, parasite or virus in culture; format: cell-based, Pseudomonas aeruginosa; conditions: PAM1482
Source text: as §5

[10] = test system: P. aeruginosa PAM1491 (MexEF-OprN; gyrA (Asp87Tyr)); experiment: microbe, parasite or virus in culture; format: cell-based, Pseudomonas aeruginosa; conditions: PAM1491
Source text: as §5

[11] = test system: P. aeruginosa PAM1032 (MexAB-OprM); experiment: microbe, parasite or virus in culture; format: cell-based, Pseudomonas aeruginosa; conditions: PAM1032
Source text: as §5

[12] = test system: P. aeruginosa PAM1548 (pump status none; gyrA (Thr83Ile)); experiment: microbe, parasite or virus in culture; format: cell-based, Pseudomonas aeruginosa; conditions: PAM1548
Source text: as §5

[13] = test system: P. aeruginosa PAM1034 (MexEF-OprN); experiment: microbe, parasite or virus in culture; format: cell-based, Pseudomonas aeruginosa; conditions: PAM1034
Source text: as §5

[14] = test system: P. aeruginosa PAM1033 (MexCD-OprJ); experiment: microbe, parasite or virus in culture; format: cell-based, Pseudomonas aeruginosa; conditions: PAM1033
Source text: as §5

[15] = test system: P. aeruginosa PAM1570 (MexEF-OprN; gyrA (Thr83Ile)); experiment: microbe, parasite or virus in culture; format: cell-based, Pseudomonas aeruginosa; conditions: PAM1570
Source text: as §5

[16] = test system: P. aeruginosa PAM1020 (pump status none; target mutation none); experiment: microbe, parasite or virus in culture; format: cell-based, Pseudomonas aeruginosa; conditions: PAM1020
Source text: as §5

[17] = molecular target: MexAB-OprM-mediated efflux of Leu-Nap, PAM1723 cells (Pseudomonas aeruginosa, UniProt P52002); experiment: Leu-Nap accumulation assay; format: cell-based
Sequence of MexAB-OprM-mediated efflux of Leu-Nap, PAM1723 cells (Q51487 18-485): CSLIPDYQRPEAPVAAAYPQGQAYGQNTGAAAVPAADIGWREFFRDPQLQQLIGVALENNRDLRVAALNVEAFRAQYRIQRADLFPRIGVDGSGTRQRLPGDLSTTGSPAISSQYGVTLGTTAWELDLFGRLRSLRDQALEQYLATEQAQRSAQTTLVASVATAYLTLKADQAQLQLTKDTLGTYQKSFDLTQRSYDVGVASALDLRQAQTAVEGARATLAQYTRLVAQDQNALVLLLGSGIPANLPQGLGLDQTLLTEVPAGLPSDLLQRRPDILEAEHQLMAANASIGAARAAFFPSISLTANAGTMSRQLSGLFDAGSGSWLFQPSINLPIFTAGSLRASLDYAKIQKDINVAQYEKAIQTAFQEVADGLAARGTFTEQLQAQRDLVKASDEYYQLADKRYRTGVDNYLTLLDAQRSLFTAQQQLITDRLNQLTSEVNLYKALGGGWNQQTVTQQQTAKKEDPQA
Sequence of MexAB-OprM-mediated efflux of Leu-Nap, PAM1723 cells (P52002 whole entry): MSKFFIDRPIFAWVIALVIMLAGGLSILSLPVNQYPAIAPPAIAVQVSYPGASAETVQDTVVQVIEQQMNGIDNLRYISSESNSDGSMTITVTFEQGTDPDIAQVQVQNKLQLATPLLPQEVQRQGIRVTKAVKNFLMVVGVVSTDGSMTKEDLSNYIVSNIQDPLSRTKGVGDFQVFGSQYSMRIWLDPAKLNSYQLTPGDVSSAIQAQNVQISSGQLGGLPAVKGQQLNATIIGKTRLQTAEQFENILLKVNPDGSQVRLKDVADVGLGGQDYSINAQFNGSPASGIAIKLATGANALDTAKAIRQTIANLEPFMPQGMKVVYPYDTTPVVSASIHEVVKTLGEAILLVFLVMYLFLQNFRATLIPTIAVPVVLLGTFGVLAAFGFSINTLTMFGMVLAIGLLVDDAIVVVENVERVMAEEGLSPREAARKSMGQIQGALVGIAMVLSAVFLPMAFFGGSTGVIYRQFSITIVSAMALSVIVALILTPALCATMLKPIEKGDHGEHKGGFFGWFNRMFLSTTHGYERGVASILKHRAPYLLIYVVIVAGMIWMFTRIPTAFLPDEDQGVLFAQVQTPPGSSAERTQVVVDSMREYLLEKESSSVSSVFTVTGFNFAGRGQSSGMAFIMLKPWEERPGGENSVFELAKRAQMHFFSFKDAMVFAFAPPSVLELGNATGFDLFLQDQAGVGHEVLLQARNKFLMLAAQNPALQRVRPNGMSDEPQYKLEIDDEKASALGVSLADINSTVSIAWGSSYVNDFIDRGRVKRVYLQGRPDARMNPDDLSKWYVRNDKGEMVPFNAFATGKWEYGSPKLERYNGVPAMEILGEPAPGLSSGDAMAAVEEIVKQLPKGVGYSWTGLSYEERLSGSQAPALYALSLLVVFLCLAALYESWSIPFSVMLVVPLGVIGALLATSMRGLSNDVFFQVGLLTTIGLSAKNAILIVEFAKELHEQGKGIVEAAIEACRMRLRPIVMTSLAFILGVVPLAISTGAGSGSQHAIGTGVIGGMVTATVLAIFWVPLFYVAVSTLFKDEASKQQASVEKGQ
Sequence of MexAB-OprM-mediated efflux of Leu-Nap, PAM1723 cells (P52477 24-383, further chain): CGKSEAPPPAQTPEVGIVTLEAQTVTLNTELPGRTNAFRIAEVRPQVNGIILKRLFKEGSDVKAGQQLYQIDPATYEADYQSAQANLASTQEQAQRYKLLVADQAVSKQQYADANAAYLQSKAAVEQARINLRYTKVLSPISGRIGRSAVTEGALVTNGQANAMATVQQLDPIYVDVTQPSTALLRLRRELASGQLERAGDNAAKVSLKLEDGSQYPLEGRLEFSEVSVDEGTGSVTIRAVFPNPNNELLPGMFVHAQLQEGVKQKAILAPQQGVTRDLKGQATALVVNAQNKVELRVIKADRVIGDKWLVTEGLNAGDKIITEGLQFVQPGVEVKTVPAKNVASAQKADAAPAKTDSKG

[18] = cited from earlier work
[19] = test system: outer membrane of P. aeruginosa strain PAM2005; experiment: microbe, parasite or virus in culture; conditions: Pseudomonas aeruginosa, read-out: IC50, permeabilization of the outer membrane
[20] = Pseudomonas aeruginosa, read-out: MIC* (MIC for the efflux pump inhibitor)
[21] = 24 hours after 300 mg in a jet nebulizer

With N=C(N)c1ccc(OCCCCCOc2ccc(C(=N)N)cc2)cc1 [Pentamidine, pentamidine] as the compound, how does the “Levofloxacin MIC in the presence of inhibitor” value (“Levofloxacin MIC … of inhibitor” below) ([1]; inhibitor 1.25 μg/ml) read?
Its value is 0.007 µg/mL.

What about the “Levofloxacin MIC … of inhibitor” value ([1]; inhibitor 2.5 μg/ml) of the same compound?
The value was 0.007 µg/mL.

And the “Levofloxacin MIC … of inhibitor” value ([1]; inhibitor 5 μg/ml)?
The value was 0.007 µg/mL.

What about the “decrease in levofloxacin MIC” value ([1]; PAM1626 lacking efflux pumps) of the same compound?
Its value is “Almost no decrease”.

And the MIC [1, 20]?
The MIC was 10 µg/mL (≈ 29.4 µM).

What about the “Ciprofloxacin MIC w/pentamidine at 20 μg/ml” value [2] of the same compound?
The value was 0.06 µg/mL.

And the “Levofloxacin MIC w/pentamidine at 20 μg/ml” value [2]?
The value was 0.125 µg/mL.

What about the “Ciprofloxacin MIC w/pentamidine at 20 μg/ml” value [3] of the same compound?
Its value is 0.125 µg/mL.

And the “Levofloxacin MIC w/pentamidine at 20 μg/ml” value [3]?
Its value is 0.25 µg/mL.

And the “Ciprofloxacin MIC w/pentamidine at 20 μg/ml” value [4]?
Its value is 0.25 µg/mL.

And the “Levofloxacin MIC w/pentamidine at 20 μg/ml” value [4]?
Its value is 0.25 µg/mL.

What about the “Levofloxacin MIC … of inhibitor” value ([5]; PAM1738, inhibitor 1.25 μg/ml) of the same compound?
The value was 0.5 µg/mL.

What about the “Levofloxacin MIC … of inhibitor” value ([5]; PAM1738, inhibitor 2.5 μg/ml) of the same compound?
The value was 0.25 µg/mL.

What about the “Levofloxacin MIC … of inhibitor” value ([5]; PAM1738, inhibitor 5 μg/ml) of the same compound?
Its value is 0.25 µg/mL.

What about the “Levofloxacin MIC … of inhibitor” value ([5]; PAM1738, inhibitor 10 μg/ml) of the same compound?
Its value is 0.25 µg/mL.

What about the “Levofloxacin MIC … of inhibitor” value ([5]; PAM1738, inhibitor 20 μg/ml) of the same compound?
The value was 0.125 µg/mL.

What about the “Levofloxacin MIC … of inhibitor” value ([5]; PAM1738, inhibitor 40 μg/ml) of the same compound?
The value was 0.03 µg/mL.

What about the “Levofloxacin MIC … of inhibitor” value ([5]; PAM1738, inhibitor 80 μg/ml) of the same compound?
The value was 0.015 µg/mL.

And the “decrease of levofloxacin MIC” value ([5]; PAM1738, pentamidine at 20 μg/ml)?
The value was 4 fold.

And the MIC [5, 20]?
Its MIC is > 80 µg/mL.

What about the “decrease of levofloxacin MIC” value ([6]; PAM1020 (wild type), pentamidine at 20 μg/ml) of the same compound?
Its value is 8 fold.

What about the “Levofloxacin MIC … of inhibitor” value ([6]; PAM1020, inhibitor 1.25 μg/ml) of the same compound?
The value was 0.25 µg/mL.

What about the “Levofloxacin MIC … of inhibitor” value ([6]; PAM1020, inhibitor 2.5 μg/ml) of the same compound?
The value was 0.25 µg/mL.

And the “Levofloxacin MIC … of inhibitor” value ([6]; PAM1020, inhibitor 5 μg/ml)?
Its value is 0.125 µg/mL.

And the “Levofloxacin MIC … of inhibitor” value ([6]; PAM1020, inhibitor 10 μg/ml)?
The value was 0.06 µg/mL.

And the “Levofloxacin MIC … of inhibitor” value ([6]; PAM1020, inhibitor 20 μg/ml)?
The value was 0.03 µg/mL.

What about the “Levofloxacin MIC … of inhibitor” value ([6]; PAM1020, inhibitor 40 μg/ml) of the same compound?
The value was 0.015 µg/mL.

And the MIC ([6]; Pseudomonas aeruginosa, PAM1020, inhibitor alone, read-out: MIC* (MIC for the efflux pump inhibitor))?
The MIC was 80 µg/mL.

And the “Levofloxacin MIC … of inhibitor” value ([7]; inhibitor 1.25 μg/ml)?
The value was 2 µg/mL.

What about the “Levofloxacin MIC … of inhibitor” value ([7]; inhibitor 2.5 μg/ml) of the same compound?
Its value is 2 µg/mL.

And the “Levofloxacin MIC … of inhibitor” value ([7]; inhibitor 5 μg/ml)?
The value was 2 µg/mL.

And the “Levofloxacin MIC … of inhibitor” value ([7]; inhibitor 10 μg/ml)?
Its value is 1 µg/mL.

What about the “Levofloxacin MIC … of inhibitor” value ([7]; inhibitor 20 μg/ml) of the same compound?
Its value is 0.25 µg/mL.

And the MIC [7, 20]?
The MIC was 40 µg/mL.

What about the “Ciprofloxacin MIC w/pentamidine at 20 μg/ml” value [8] of the same compound?
The value was 4 µg/mL.

And the “Levofloxacin MIC w/pentamidine at 20 μg/ml” value [8]?
Its value is 4 µg/mL.

And the “Ciprofloxacin MIC w/pentamidine at 20 μg/ml” value [9]?
The value was 2 µg/mL.

What about the “Levofloxacin MIC w/pentamidine at 20 μg/ml” value [9] of the same compound?
The value was 1 µg/mL.

What about the “Ciprofloxacin MIC w/pentamidine at 20 μg/ml” value [10] of the same compound?
The value was 1 µg/mL.

And the “Levofloxacin MIC w/pentamidine at 20 μg/ml” value [10]?
The value was 2 µg/mL.

And the “Ciprofloxacin MIC w/pentamidine at 20 μg/ml” value [11]?
Its value is 0.06 µg/mL.

And the “Levofloxacin MIC w/pentamidine at 20 μg/ml” value [11]?
The value was 0.125 µg/mL.

What about the “Ciprofloxacin MIC w/pentamidine at 20 μg/ml” value [12] of the same compound?
The value was 0.5 µg/mL.

What about the “Levofloxacin MIC w/pentamidine at 20 μg/ml” value [12] of the same compound?
The value was 0.25 µg/mL.

And the “Ciprofloxacin MIC w/pentamidine at 20 μg/ml” value [13]?
The value was 0.06 µg/mL.

What about the “Levofloxacin MIC w/pentamidine at 20 μg/ml” value [13] of the same compound?
Its value is 0.125 µg/mL.

And the “Ciprofloxacin MIC w/pentamidine at 20 μg/ml” value [14]?
Its value is 0.25 µg/mL.

And the “Levofloxacin MIC w/pentamidine at 20 μg/ml” value [14]?
Its value is 0.25 µg/mL.

What about the “Ciprofloxacin MIC w/pentamidine at 20 μg/ml” value [15] of the same compound?
The value was 2 µg/mL.

And the “Levofloxacin MIC w/pentamidine at 20 μg/ml” value [15]?
Its value is 2 µg/mL.

What about the “Ciprofloxacin MIC w/pentamidine at 20 μg/ml” value [16] of the same compound?
Its value is 0.015 µg/mL.

And the “Levofloxacin MIC w/pentamidine at 20 μg/ml” value [16]?
Its value is 0.03 µg/mL.

What about the “inhibitor concentration at which rate of Leu-Nap uptake in PAM1723 and PAM1626 is the same (complete inhibition of efflux)” value ([17]; Leu-Nap 100 μg/ml) of the same compound?
Its value is 40 µg/mL.

And the mode of inhibition ([17]; dependence on Leu-Nap substrate concentration)?
The mode of inhibition was “uncompetitive inhibition”.

What about the “pentamidine required for complete inhibition of the pump” value ([17]; external Leu-Nap 60 μg/ml, fluorescence change in 30 min) of the same compound?
The value was 80 µg/mL.

What about the “pentamidine required to completely inhibit MexAB-OprM-mediated efflux” value ([17]; external Leu-Nap 120 μg/ml, fluorescence change in 30 min) of the same compound?
The value was 20 µg/mL.

And the “concentration in bronchial alveolar lavage fluid sediment” value [18, 21]?
Its value is 705 ± 242 ng/mL.

And the “concentration in bronchial alveolar lavage fluid supernatant” value [18, 21]?
Its value is 23.2 ± 7.75 ng/mL.

And the trough plasma concentration ([18]; after 3 weeks of daily administration of 3 mg/kg)?
The trough plasma concentration was 61.1 ± 56.0 ng/mL.

What about the IC50 [19] of the same compound?
The IC50 was > 64 µg/mL.

From patent US7947741B2, “Use and administration of bacterial efflux pump inhibitors” (Mpex Pharmaceuticals, Inc., priority 2004, dated 2011)
